In US4241184A, “Secondary alcohol dehydrogenase enzyme and use thereof” (priority 1979, dated 1980):

How the values were obtained:
[1] = test system: cell-free particulate fractions derived from the methylotrophic microorganisms; test: Conversion of C3-C6 n-alkanes to sec. alcohols by cell-free particulate fractions: inhibitors and electron donors; assay type: biochemical
From the text: The conditions for preparing the cell suspensions or the cell-free particulate fractions from methane-grown methylotroph microorganisms is the same as described above. […] Tables XXV and XXVI show the conversion of C3 -C6 n-alkanes to the corresponding secondary alcohols using cell suspensions and cell-free particulate fractions, respectively, of methane-grown methylotroph microorganisms.

[2] = Propylene- and methane-oxidizing activities in cell fractions P(40), P(80), S(80) of methylotrophs; assay type: biochemical; settings: in place of NADH
Experimental: The oxidation of methane and propylene by particulate [(P)40 and(P)80] fractions and soluble [S(80)] fraction was measured at 30° C. by estimating the production of methanol and propylene oxide, respectively.
Reaction mixtures were contained in 10 ml vials at 4° C. Vials were sealed with rubber caps. The gaseous phase in the vials was removed using vacuum and then was replaced with a gas mixture of methane or propylene and oxygen at a 1:1, v/v ratio. Oxidation of other gaseous n-alkanes and n-alkenes was examined as described above. For liquid substrates, 10 μl of substrate was used directly. Vials were then incubated at 30° C. on a rotary shaker at 200 RPM.
The column temperature was maintained isothermally at 120° C. The carrier gas flow rate was 30 ml/min. of helium.

**Q.** Which “electron donor in place of NADH for hydroxylation of n-alkanes” value [1] does the source give for `NC(=O)C1=CN([C@@H]2O[C@H](COP(=O)(O)OP(=O)(O)OC[C@H]3O[C@@H](n4cnc5c(N)ncnc54)[C@H](OP(=O)(O)O)[C@@H]3O)[C@@H](O)[C@H]2O)C=CC1` [NADPH, reduced nicotinamide adenine dinucleotide phosphate] here?
**A.** could also be utilized

**Q.** What about the “electron carrier for epoxidation of propylene and hydroxylation of methane” value [2] of the same molecule?
**A.** could also be utilized
